Starred links: 1 amine or outer side, 2 acyl side, 3 side chain; linkers in the order of their positions; H or OH if unused. Non-standard residues stand in square brackets, D forms with d. Residues, ends and D or L forms follow the SMILES beside them. Groups on a side chain read outwards from the residue. *: point of attachment. Biotin = O=C1N[C@H]2[C@H](CS[C@H]2CCCCC(=O)*)N1; X1 = CN(C)C(=O)/C=C/CC[C@H](N[*:1])C(=O)[*:2]; PEG4 = NCCOCCOCCOCCOCCC(=O)O; Dab = NCC[C@H](N)C(=O)O
Assays:
[1] = system: normal rat kidney (NRK) cells; assay: Uptake of fluorescent probe by NRK cells with or without α2M; format: cell-based
Source text: (§1) (C) Fluorescently tagged α2M colocalizes strongly with HB-230.
FIG. 15. Uptake of HB-2121.
Puncta of two distinct sizes were observed.
To verify that HB230 internalization was dependent on TG2 activity, HB258 was designed and synthesized as a control probe. This dihydro-analog is otherwise identical to HB230 but lacks its electrophilic warhead and is therefore unable to irreversibly bond to the active site C277 residue of TG2.

[2] = system: α2M; assay: Co-endocytosis of HB230 and fluorescent α2M in NRK cells; format: cell-based; settings: larger, but not smaller, puncta
Procedure: as §1
To obtain definitive evidence for co-endocytosis of HB230 and α2M, a fluorescent batch of α2M was prepared.

[3] = system: early endosome antigen-1 (EEA-1); assay: Colocalization with early endosomes (EEA-1 antibody staining) in NRK cells; format: cell-based, rat; settings: co-incubated with α2M, 90 min
Procedure: (§2) To establish the identity of these large intracellular puncta, NRK cells were transfected with RFP tagged lysosomal-associated membrane protein (LAMP-1). Wild-type and transfected cells were co-incubated with α2M and HB230 for 90 min prior to fixation. To test the hypothesis that the large puncta corresponded to early endosomes, fixed wild-type cells were stained with an antibody against early endosome antigen-1 (EEA-1).

[4] = system: lysosomal-associated membrane protein (LAMP-1); assay: Colocalization with RFP-tagged LAMP-1 in transfected NRK cells; format: cell-based, rat; settings: co-incubated with α2M, 90 min; large puncta
Procedure: as §2

[5] = system: WT MEFs; assay: Uptake of HB230 and α2M in wild-type MEFs; format: cell-based; settings: exogenous TRX and betamethasone, with α2M
Source text: Low density lipoprotein (LDL) receptor-related protein 1 (LRP-1, a.k.a., (α2M receptor or CD91), a member of the LDL receptor family, is responsible for receptor-mediated endocytosis of α2M. Although this receptor is expressed on the surface of a wide range of cell types within the body, α2M endocytosis by LRP-1 is only triggered when this ubiquitous plasma protein undergoes a conformational change upon binding to its protease or non-protease ligands (Bres and Faissner, 2019). We sought to establish whether endocytosis of the ternary α2M-TG2-peptide complex was mediated by LRP-1 using pharmacologic inhibitors of clathrin mediated endocytosis.

[6] = system: LRP-1 knockout MEFs; assay: Uptake of HB230 and α2M in LRP-1 knockout MEFs; format: cell-based; settings: exogenous TRX and betamethasone, with α2M
[7] = system: pepsin; assay: Metabolism by pepsin; format: in vitro ADME; settings: role: substrate
Source text: (§3) HB-2121 is analogous to the TG2 inhibitor/probe HB-230 but with one modification; the primary amide C-terminus of HB-230 was replaced with a tertiary dimethyl amide. This change greatly enhances the gastrointestinal stability of the probe.

[8] = system: trypsin; assay: Metabolism by trypsin; format: in vitro ADME; settings: role: substrate
Source text: as §3

[9] = system: elastase; assay: Metabolism by elastase; format: in vitro ADME; settings: role: substrate
Source text: as §3

[10] = system: chymotrypsin; assay: Metabolism by chymotrypsin; format: in vitro ADME; settings: role: substrate
Source text: (§4) FIGS. 14A-14B. Metabolic stability of HB-230 and HB-2121. (A) HB-230 is transformed by chymotrypsin to give the C-terminal carboxylic acid. This metabolite is subsequently cleaved by carboxypeptidase to give the tetrapeptide without the terminal phenylalanine. (B) HB-2121 is stable to both chymotrypsin and carboxypeptidase mediated metabolism.
as §3

[11] = system: carboxypeptidase; assay: Metabolism by carboxypeptidase; format: in vitro ADME; settings: role: substrate, subsequent to chymotrypsin
Source text: as §4, §3

[12] = Endocytosis of fluorescent streptavidin by NRK cells; format: cell-based, rat; settings: 2 μM HB2110, 1 μM Cy5-conjugated streptavidin
Procedure: FIG. 11: (A) Treating NRK cells with increasing concentrations of HB-3-003 in the presence of fluorescently tagged streptavidin leads to increased internalization of streptavidin after a 90 min treatment. (B) Quantification of dose response.
In order to determine the ability of this pathway to clear specifically targeted proteins from the extracellular environment, we synthesized a pentapeptide harboring the electrophilic warhead and a PEG-4 biotin conjugated to the DAB substituted Y amino acid (HB2110). Streptavidin is expected to bind to the biotin arm of the probe, and thus be endocytosed along with the rest of the complex as previously described. To test this hypothesis NRK cells were treated with 2 μM HB2110 and 1 μM Cy5-conjugated streptavidin.
We also synthesized the equivalent pentapeptide harbouring a Gln residue in the place of the electrophilic warhead, with biotin conjugated to the DAB substituted Y amino acid through a PEG linker (HB3-3). We then assed the ability of cells to endocytose fluorescent streptavidin in the presence of HB3-3 and α2M.

Structure (SMILES) | uptake by NRK cells in the presence of α2M ([1]; 100 μg/mL of α2M) | uptake by NRK cells ([1]; 1 TM (so in the source) exogenous probe, 90 min) | uptake by NRK cells on supplementation with α2M ([1]; NRK cells supplemented with increasing α2M) | overlap with fluorescent α2M [2] | localization relative to EEA-1 [3] | co-localization with RFP-tagged LAMP-1 [4] | internalization of ternary complex [5] | formation of large co-stained puncta [6] | resistance to metabolism by pepsin [7] | resistance to metabolism by trypsin [8] | resistance to metabolism by elastase [9] | metabolism by chymotrypsin [10] | metabolism by carboxypeptidase [11] | colocalization of Cy5-streptavidin with α2M [12]
CC(=O)N1CCC[C@H]1C(=O)N[C@@H](CC/C=C/C(=O)N(C)C)C(=O)N[C@@H](CCNC(=O)CCCCC[N+]1=C(/C=C/C=C/C=C2/N(C)c3ccc(S(=O)(=O)O)cc3C2(C)C)C(C)(C)c2cc(S(=O)(=O)[O-])ccc21)C(=O)N1CCC[C@H]1C(=O)N[C@@H](Cc1ccccc1)C(N)=O [HB-230, AcPro-HWE-(Dab-SCy5)-Pro-Phe] | robustly taken up | robust uptake | strong dose-dependent increase in uptake of HB230 up to ~100 μg/ml | strong overlap | appear in distinct sub-cellular compartments for the most part | strongly co-localizes with RFP-tagged LAMP-1 in the large puncta | internalized the ternary complex | marked defect in their ability to form large co-stained puncta | resistance to metabolism | resistance to metabolism | resistance to metabolism | enzymatic deamidation at the C-terminus (CONH2→CO2H) | subsequent cleavage of the C-terminal phenylalanine | –
CC(=O)N1CCC[C@H]1C(=O)N[C@@H](CC/C=C/C(=O)N(C)C)C(=O)N[C@@H](CCNC(=O)CCOCCOCCOCCOCCNC(=O)CCCC[C@@H]1SC[C@@H]2NC(=O)N[C@@H]21)C(=O)N1CCC[C@H]1C(=O)N[C@@H](Cc1ccccc1)C(N)=O [HB-2110] (Ac-P[X1][Dab]([PEG4-Biotin])PF-NH2) | – | – | – | – | – | – | – | – | – | – | – | – | – | found to colocalize with α2M in the lysosomal compartment

Source: patent publication US20260364210A1, “COMPOSITIONS AND METHODS FOR TRANSGLUTAMINASE-MEDIATED ENDOCYTOSIS” (The Board of Trustees of the Leland Stanford Junior …, priority 2022, published 2026)
